Assay results published in the METLIN SMRT retention time set (Domingo-Almenara et al. 2019).

Test: gradient 5% acetonitrile 3 min, to 50% in 2 min, to 85% in 15 min, held 3 min, 100 µL/min
Conditions: column: Zorbax Extend-C18 2.1 x 50 mm; eluents: water / acetonitrile, 0.1% formic acid
Summary of the method: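 Pure standards were run in mixtures of ~100 molecules by HPLC coupled to a quadrupole time-of-flight mass spectrometer. The column was a Zorbax Extend-C18 (2.1 × 50 mm, 1.8 μm) at 100 μL/min, with water and acetonitrile each containing 0.1% formic acid, in positive and negative ionization mode. Dead and dwell volumes were 40 μL and 900 μL. Retention time was taken from computationally picked adduct peaks, each manually inspected, with data collected over 3 months.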

| RP-LC retention time [s] | Structure (SMILES) |
| --- | --- |
| 931 | Cc1ccc(-c2cn3ccn(-c4ccc(C)c(C)c4)c(=O)c3n2)cc1 |
| 845 | CCCN1C(=O)CCc2cc(NS(=O)(=O)c3ccccc3C(=O)OC)ccc21 |
| 823 | O=C(Nc1ccc2c(c1)CN(C(=O)C1COc3ccccc3O1)CCO2)C1CC1 (stereo not drawn) |
| 690 | O=C(Nc1ccc(Br)cc1F)N1CCC(n2cnc3cccnc32)CC1 |
| 585 | COc1ccc(C(=O)N2CCc3nc(CNC(=O)C4CCC4)n(C)c3C2)cn1 |
| 938 | COc1ccc(S(=O)(=O)N2CCCC(C(=O)Nc3ccc4c(c3)OCCO4)C2)cc1Cl (stereo not drawn) |
| 658 | Cc1noc([C@@H]2CN(S(=O)(=O)c3cccs3)C[C@H]2C(N)=O)n1 |
| 568 | O=C(NCCCn1ccnc1)C(=O)Nc1c2c(nn1-c1cccc(Cl)c1)CSC2 |
| 823 | CCOC(=O)c1c(C)[nH]c(CCC(=O)NC2CCCCC2)c1C |
| 861 | COc1ccc(-n2cc(C(=O)OCc3cc(=O)n4ccccc4n3)c3ccccc3c2=O)cc1 |
| 799 | O=C(C1CC(=O)N(c2n[nH]c3ccccc23)C1)N1CCN(c2ccc(Cl)cc2)CC1 (stereo not drawn) |
| 826 | COc1ccc(Br)c2c1C(=O)CC2 |
| 796 | CCCCNC(=O)c1nc(Nc2ccc(F)cc2)c2ccccc2n1 |
| 831 | CC(=O)CC(=O)Nc1ccc(Cl)c(C(F)(F)F)c1 |
| 706 | Cc1c(C(=O)N2CCCC2)cnn1-c1ncccc1-c1nc(C2CC2)no1 |
| 701 | COc1ccc(Br)cc1S(=O)(=O)Nc1cc(-c2cn3ccccc3n2)ccc1C |
| 952 | O=C(Cn1nc2c3cc(-c4ccccc4)nn3ccn2c1=O)Nc1cccc(Br)c1 |
| 908 | CN(CCc1noc(-c2ccc(Cl)cc2)n1)C(=O)c1ccc(C#N)cc1 |
| 985 | COc1ccc(Cl)cc1NC(=O)Cc1csc2nc(-c3ccc(C)c(C)c3)cn12 |
| 640 | CCN(Cc1ccccc1)C(=O)c1cn2c(n1)COCC2 |
| 700 | O=C(c1nnc(-c2ccc(S(=O)(=O)N3CCCCC3)cc2)o1)N1CCN(C2CCCCC2)CC1 |
| 730 | CN1C(=O)CCc2cc(NC(=O)c3n[nH]c4ccccc34)ccc21 |

| RP-LC retention time [s] | Structure (SMILES) |
| --- | --- |
| 654 | COc1cccc(CNC(=O)N2CCN(Cc3nc4ccccc4o3)CC2)c1 |
| 768 | COCCN(CC1(C)CCOCC1)C(=O)NCc1cccc(F)c1 |
| 597 | CC(C)NC(=O)c1ccc(Cn2cncn2)cc1 |
| 958 | CC1(C(=O)NCc2ccccc2)CCCN(C(=O)Nc2ccccc2C(F)(F)F)C1 (stereo not drawn) |
| 589 | O=C(CN1C(=O)COc2ccc(C(=O)N3CCCC3)cc21)NCCN1CCCCCC1 |
| 1080 | Cc1cccc(-n2c(N3CCCC(C(=O)Nc4ccc(Cl)cc4)C3)nc3ccsc3c2=O)c1 (stereo not drawn) |
| 584 | O=C(c1ccc2c(c1)OCO2)N1CCC(c2ccncc2)CC1 |
| 698 | COc1ccc(CCNC(=O)CCn2c(=O)sc3ccccc32)cc1OC |
| 989 | CCc1ccc(N2CC(c3nc(-c4ccc(OC)c(OC)c4)no3)CC2=O)cc1 (stereo not drawn) |
| 719 | CCCN(CCC)CCCNC(=O)C1CCCN(c2ncc(-c3ccccc3)cn2)C1 (stereo not drawn) |
| 772 | O=C(CC(=O)Nc1ccccc1Cl)Nc1ccc2nc3n(c(=O)c2c1)CCCCC3 |
| 865 | Cc1ccc(CNc2nc(-c3ccc(Cl)cc3)nc3ccccc23)o1 |
| 727 | CC(C)CCNC(=O)C1(C)Cn2nc(C(=O)NCc3ccc(F)cc3)cc2C(=O)N1C (stereo not drawn) |
| 920 | CCC(C)NS(=O)(=O)c1cc(-c2nc(C)cs2)n(CC(=O)N2CCCCC2)c1 (stereo not drawn) |
| 855 | COc1ccccc1N1CCN(c2ccc3cc(S(=O)(=O)N4CCCC4)ccc3n2)CC1 |
| 859 | CCc1nnc(-c2nnc(N(CC)CC)c3ccccc23)o1 |
| 797 | CCn1cnc(S(=O)(=O)N2CCCC(C(=O)Nc3cccc(Cl)c3)C2)c1 (stereo not drawn) |
| 694 | Cc1ccc(CNC(=O)Cn2c(C(C)C)nc3c(c2=O)CN(Cc2ccccc2)CC3)cc1 |
| 697 | O=C(Nc1ccc2c(c1)OCCO2)C1CCN(C(=O)c2cccc(F)c2)CC1 |
| 927 | COc1ccc(NC(=O)Nc2c(-c3ccc(C)cc3)nc3ccccn23)cc1OC |
| 938 | Cc1cc(-c2nnc(-c3ccccc3)o2)c(C)n1CC(=O)Nc1ccc(F)cc1 |
| 678 | Cc1cc2[nH]c(C(=O)Nc3ccc(F)cc3Br)c(CN(C)C)c2s1 |

| RP-LC retention time [s] | Structure (SMILES) |
| --- | --- |
| 859 | COc1cc2c(cc1C(=O)NCCc1c[nH]c3ccccc13)OCCCO2 |
| 684 | Cc1cccc(C)c1NC(=O)Cn1nc2n(c1=O)CCCCC2 |
| 636 | CCN1CCN(C(=O)Cn2cccc2-c2nnc(-c3ccccc3)o2)CC1 |
| 598 | O=C(c1cc(-c2cccnc2)n[nH]1)N1CCN(C(=O)c2cccc3[nH]ccc23)CC1 |
| 714 | O=C(NCCCN1CCCC1=O)c1csc(N2CCN(c3ccc(F)cc3)CC2)n1 |
| 873 | CCOC(=O)c1ccc(NC(=O)C2CCCN(c3ncnc4c3nc3n4CCCCC3)C2)cc1 (stereo not drawn) |
| 722 | CC1(C)C(=O)Nc2ccc(S(=O)(=O)N3CCC(c4noc(-c5cccnc5)n4)C3)cc21 (stereo not drawn) |
| 1090 | Cc1cc2occ(CN(C)CCN(C)Cc3cn(-c4cccc(C(F)(F)F)c4)c4ccccc34)c(=O)c2cc1C |
| 564 | Cc1noc(C)c1CCC(=O)N1CCC(c2nc(C3CC3)n[nH]2)CC1 |
| 829 | CC1(C(=O)NCc2ccc(F)cc2)CCCN(C(=O)NCc2ccccc2)C1 (stereo not drawn) |
| 908 | Cc1ccc(CNC(=O)c2ccc3c(c2)N(C)C(=O)C2CCCCN32)cc1 (stereo not drawn) |
| 568 | CCN1CCN(C(=O)c2nc(-c3ccnc(N4CCCCC4)c3)no2)CC1 |
| 668 | CCc1sc(N)nc1-c1ccc(OC)cc1 |
| 922 | CC(C)n1nccc1-c1csc(S(=O)(=O)N2CCC3(CC2)OCCO3)c1 |
| 940 | Cc1ccc(C(=O)N2CCCC(COc3ccc(C(=O)N4CCCC4)cc3)C2)cc1C (stereo not drawn) |
| 914 | COc1cccc(-c2cn3ccn(-c4ccc5c(c4)CCC5)c(=O)c3n2)c1 |
| 1080 | CCOCCCNC(=O)C(C)n1c(=O)c(C(F)(F)F)nc2cc(C)c(C)cc21 (stereo not drawn) |
| 830 | Cc1noc(-c2cccc(OC3CN(C(=O)NCc4ccccc4)C3)c2)n1 |
| 728 | Cc1cc(N2CCCCC2)nc(N2CCN(C(=O)C3CCCCC3)CC2)n1 |
| 1150 | COc1cccc(-c2nc(-c3ccc4nnn(C(C)C)c4c3)no2)c1 |
| 706 | Cn1cc(CC(=O)NCc2ccccc2Cl)c2cccnc21 |
| 920 | Fc1cccc(-c2noc(-c3ccc(N4CCN(CCOc5ccc(Cl)cc5)CC4)nc3)n2)c1 |

| RP-LC retention time [s] | Structure (SMILES) |
| --- | --- |
| 688 | COc1ccc(C(C)NC(=O)C2CC(=O)N(c3ccc4c(c3)CCN4C(C)=O)C2)cc1 (stereo not drawn) |
| 956 | Cn1nc(C(=O)Nc2ccccc2)c2c1CCN(C(=O)Nc1ccc(Br)cc1F)C2 |
| 741 | COCCCNc1c(-c2ccc(F)cc2)nc2sc(C(=O)N3CCOCC3)c(C)n12 |
| 784 | CCOC(=O)c1c(CN2CCOCC2)n(C)c2cc(-c3cccnc3)c3c(c12)CN(C)CO3 |
| 578 | CC(C)N1CCN(C(=O)c2csc(N3CCN(c4ccccc4)CC3)n2)CC1 |
| 891 | CCOC(=O)c1ccccc1NC(=O)N(Cc1cc(=O)[nH]c2ccccc12)C(C)C |
| 784 | Cc1cccc(C)c1NC(=O)Cn1ncc2c(c1=O)N(CC1CC1)C(=O)CS2 |
| 712 | COc1ccc(Cl)cc1S(=O)(=O)N1CCc2nn(C)c(=O)n2CC1 |
| 1100 | O=C(Cn1cccc1-c1nnc(-c2ccccc2)o1)N1CCN(c2ccc(Cl)cc2)CC1 |
| 655 | O=C(c1ccc(Br)cc1)N1CCN(c2nc(CN3CCCCC3)cs2)CC1 |
| 731 | O=C(NCc1ccccc1F)C1CCc2nc(N3CCOCC3)ncc2C1 (stereo not drawn) |
| 594 | CCCN1C(=O)c2cccnc2Sc2cc(C(=O)N3CCN(CC)CC3)ccc21 |
| 1130 | Cc1nn(-c2nc(-c3ccccc3)cs2)c(C)c1CC(=O)Nc1ccc(F)cc1 |
| 766 | CCN1C(=O)c2cc(C(=O)NCc3ccc(C)cc3)nn2CC1(C)C(=O)NC1CCCC1 (stereo not drawn) |
| 840 | CCc1noc([C@@H]2CC(F)(F)CN2C(=O)c2occc2C)n1 |
| 512 | CCS(=O)(=O)N1C[C@@H](COc2ccncc2)[C@H](c2ccccn2)C1 |
| 698 | COc1ccccc1C(=O)N1CCN(C2=NS(=O)(=O)c3ccccc32)CC1 |
| 923 | Cc1ccc(CNC(=O)c2cnc(-c3ccc(C)cc3)nc2-c2ccncc2)cc1 |
| 693 | COc1ccccc1N1CCN(C(=O)C2CC(=O)N(c3ccc4oc(C)nc4c3)C2)CC1 (stereo not drawn) |
| 934 | Cc1cc(C)cc(Nc2nc(C)cc(=O)n2CC(=O)Nc2cccc(Br)c2)c1 |
| 897 | CCOC(=O)C1=C(C)N(CC(=O)NC2CCCC2)c2ncnn2C1c1ccc(C)cc1 (stereo not drawn) |

| Structure (SMILES) | RP-LC retention time [s] |
| --- | --- |
| COc1ccc(NC(=O)[C@@H]2c3ccccc3C(=O)N3CCCC[C@@H]23)c(OC)c1 | 752 |
